Experimental data as given in the supplement of paper PMC11061612.

How the values were obtained:
Experiment in all cases: combination Emax (second highest fraction inhibited in the dose matrix, 72 h); higher = more inhibition; extreme values may be limits of the assay
[1] = system: AN3-CA (Endometrial Carcinoma)
Summary of the method: (§1)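 Cell lines in DMEM/F12 or RPMI with 10% FBS were plated in 1536-well plates, held 24 hours at 37°C, 5% CO2, then given two-drug dose matrices for 72 hours (DMSO typically 0.2%). Viability was read by CellTiter-Glo 2.0 luminescence and scaled as inhibition from 0 (vehicle wells) to 1 (blank wells). Combination Emax is the second-highest inhibition in the matrix; Bliss excess is observed combination effect minus expected EA + EB − EA·EB, EA and EB being single-agent effects.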

[2] = system: BALL-1 (B-Lymphoblastic Leukemia)
Summary of the method: as §1

[3] = system: Becker (Low Grade Glioma)
Summary of the method: as §1

CHL-1 (Melanoma) = system: CHL-1 (Melanoma)
Summary of the method: as §1

[4] = system: CML-T1 (Chronic Myelogenous Leukemia)
Summary of the method: as §1

[5] = system: COLO-684 (Endometrial Carcinoma)
Summary of the method: as §1

[6] = system: Calu-6 (Non-Small Cell Lung Carcinoma)
Summary of the method: as §1

[7] = system: EB-3 (Burkitt's Lymphoma)
Summary of the method: as §1

ES-2 (Ovarian Carcinoma) = system: ES-2 (Ovarian Carcinoma)
Summary of the method: as §1

[8] = system: FLO-1 (Esophageal Adenocarcinoma)
Summary of the method: as §1

[9] = system: HSC-3 (Oral Cavity Carcinoma)
Summary of the method: as §1

KYM-1 (Rhabdomyosarcoma) = system: KYM-1 (Rhabdomyosarcoma)
Summary of the method: as §1

[10] = system: NCI-H1563 (Lung Adenocarcinoma)
Summary of the method: as §1

[11] = system: NCI-H1623 (Lung Adenocarcinoma)
Summary of the method: as §1

[12] = system: NCI-H1755 (Lung Adenocarcinoma)
Summary of the method: as §1

[13] = system: RPMI-8866 (Chronic Myelogenous Leukemia)
Summary of the method: as §1

RT4 (Bladder Carcinoma) = system: RT4 (Bladder Carcinoma)
Summary of the method: as §1

[14] = system: SJRH30 (Rhabdomyosarcoma)
Summary of the method: as §1

[15] = system: SNU-175 (Colorectal Carcinoma)
Summary of the method: as §1

[16] = system: SW684 (Other Solid Carcinomas)
Summary of the method: as §1

| SMILES | combination Emax [1] | combination Emax [2] | combination Emax [3] | combination Emax (CHL-1 (Melanoma)) | combination Emax [4] | combination Emax [5] | combination Emax [6] | combination Emax [7] | combination Emax (ES-2 (Ovarian Carcinoma)) | combination Emax [8] | combination Emax [9] | combination Emax (KYM-1 (Rhabdomyosarcoma)) | combination Emax [10] | combination Emax [11] | combination Emax [12] | combination Emax [13] | combination Emax (RT4 (Bladder Carcinoma)) | combination Emax [14] | combination Emax [15] | combination Emax [16] |
| --- | --- | --- | --- | --- | --- | --- | --- | --- | --- | --- | --- | --- | --- | --- | --- | --- | --- | --- | --- | --- |
| CN(CCO)CC[C@H](CSc1ccccc1)Nc1ccc(S(=O)(=O)NC(=O)c2ccc(N3CCC([C@@H](O)c4ccccc4-c4ccc(Cl)cc4)CC3)cc2)cc1S(=O)(=O)C(F)(F)F [AZD4320] + C[C@@H]1COCCN1C2=NC(=NC(=C2)C3(CC3)[S@](=N)(=O)C)C4=C5C=CNC5=NC=C4 [AZD6738] (first compound max 1 µM, 7x7, partner max 10 µM) | 0.637 | 1 | 0.846 | 0.893 | 1 | 0.728 | 0.891 | 0.578 | 0.94 | 0.742 | 0.691 | 0.95 | 0.433 | 0.871 | 0.831 | 1 | 0.791 | 0.927 | 0.936 | 0.537 |
| CN(CCO)CC[C@H](CSc1ccccc1)Nc1ccc(S(=O)(=O)NC(=O)c2ccc(N3CCC([C@@H](O)c4ccccc4-c4ccc(Cl)cc4)CC3)cc2)cc1S(=O)(=O)C(F)(F)F [AZD4320] + C[C@@H](Nc1cc(F)cc(F)c1)c1cc(C(=O)N(C)C)cc2c(=O)cc(N3CCOCC3)oc12 [AZD8186] (first compound max 1 µM, 7x7, partner max 3 µM) | 0.624 | 1 | 0.431 | 0.408 | 1 | 0.396 | 0.592 | 0.332 | 0.334 | 0.486 | 0.711 | 0.197 | 0.565 | 0.865 | 0.45 | 0.864 | 0.583 | 0.457 | 0.908 | 0.702 |
| CN(CCO)CC[C@H](CSc1ccccc1)Nc1ccc(S(=O)(=O)NC(=O)c2ccc(N3CCC([C@@H](O)c4ccccc4-c4ccc(Cl)cc4)CC3)cc2)cc1S(=O)(=O)C(F)(F)F [AZD4320] + Cc1cc2ncnn2cc1Nc1ncc2c(n1)n(C1CCOCC1)c(=O)n2C [AZD7648] (first compound max 1 µM, 7x7, partner max 10 µM) | 0.445 | 1 | 0.124 | 0.177 | 0.99 | 0.197 | 0.59 | 0.334 | 0.501 | 0.347 | 0.151 | 0.0895 | 0.35 | 0.298 | 0.286 | 0.665 | 0.355 | 0.147 | 0.446 | 0.184 |
| CN(CCO)CC[C@H](CSc1ccccc1)Nc1ccc(S(=O)(=O)NC(=O)c2ccc(N3CCC([C@@H](O)c4ccccc4-c4ccc(Cl)cc4)CC3)cc2)cc1S(=O)(=O)C(F)(F)F [AZD4320] + Cn1cnc2c(F)c(Nc3ccc(Br)cc3Cl)c(C(=O)NOCCO)cc21 [Selumetinib] (first compound max 1 µM, 7x7, partner max 3 µM) | 0.693 | 1 | 0.259 | 0.389 | 0.996 | 0.355 | 0.837 | 0.393 | 0.466 | 0.453 | 0.701 | 0.203 | 0.198 | 0.859 | 0.295 | 0.854 | 0.601 | 0.487 | 0.865 | 0.609 |
| COc1nnc2ccc(N3CCC(c4ccc(OCCN5CCN(C)C(=O)[C@H]5C)cc4)CC3)nn12 [AZD5153] + C=CCn1c(=O)c2cnc(Nc3ccc(N4CCN(C)CC4)cc3)nc2n1-c1cccc(C(C)(C)O)n1 [AZD1775] (first compound max 1 µM, partner max 1 µM) | 0.435 | 1 | 0.384 | 0.624 | 0.945 | 0.744 | 0.854 | 0.814 | 0.747 | 0.888 | 0.795 | 0.901 | 0.564 | 0.59 | 0.8 | 0.952 | 0.571 | 0.942 | 0.813 | 0.452 |
| COc1nnc2ccc(N3CCC(c4ccc(OCCN5CCN(C)C(=O)[C@H]5C)cc4)CC3)nn12 [AZD5153] + CC1(C)CCC(CN2CCN(c3ccc(C(=O)NS(=O)(=O)c4ccc(NCC5CCOCC5)c([N+](=O)[O-])c4)c(Oc4cnc5[nH]ccc5c4)c3)CC2)=C(c2ccc(Cl)cc2)C1 [Venetoclax] (first compound max 1 µM, 7x7, partner max 1 µM) | 0.2 | 1 | 0.334 | 0.531 | 0.443 | 0.528 | 0.157 | 0.806 | 0.546 | 0.51 | 0.69 | 0.859 | 0.491 | 0.419 | 0.454 | 0.814 | 0.483 | 0.383 | 0.665 | 0.531 |
